Laboratory results taken from the supplement of paper PMC3937590.

Experiments:
Assay in all cases: -log10 GI50 (growth inhibition 50%) (-log10(M)); higher = more potent growth inhibition
[1] = system: SUM229PE
Outline: (§1)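 Dose-response data came from breast cancer cell lines exposed to each compound for 72 hours at nine doses in 1:5 serial dilution, in triplicate, and read by luminescence relative to a time-zero plate. A Gompertz curve fitted by nonlinear least squares gave GI50, the molar concentration for the set level of growth inhibition, reported as its negative logarithm to base 10. Where a value equals the top dose, it carries a < qualifier.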

[2] = system: 600MPE
Outline: as §1

[3] = system: MDAMB361
Outline: as §1

[4] = system: BT549
Outline: as §1

[5] = system: MDAMB415
Outline: as §1

[6] = system: HCC1395
Outline: as §1

[7] = system: MDAMB231
Outline: as §1

[8] = system: SUM1315MO2
Outline: as §1

[9] = system: SUM185PE
Outline: as §1

[10] = system: HCC2185
Outline: as §1

[11] = system: MCF12A
Outline: as §1

[12] = system: BT474
Outline: as §1

[13] = system: LY2
Outline: as §1

[14] = system: SUM52PE
Outline: as §1

[15] = system: AU565
Outline: as §1

[16] = system: HCC1419
Outline: as §1

[17] = system: SUM159PT
Outline: as §1

[18] = system: HCC1569
Outline: as §1

[19] = system: 184B5
Outline: as §1

[20] = system: T47D_KBluc
Outline: as §1

Structure (SMILES)	-log10 GI50 [1]	-log10 GI50 [2]	-log10 GI50 [3]	-log10 GI50 [4]	-log10 GI50 [5]	-log10 GI50 [6]	-log10 GI50 [7]	-log10 GI50 [8]	-log10 GI50 [9]	-log10 GI50 [10]	-log10 GI50 [11]	-log10 GI50 [12]	-log10 GI50 [13]	-log10 GI50 [14]	-log10 GI50 [15]	-log10 GI50 [16]	-log10 GI50 [17]	-log10 GI50 [18]	-log10 GI50 [19]	-log10 GI50 [20]
CC(=O)Nc1cccc(-n2c(=O)n(C3CC3)c(=O)c3c(Nc4ccc(I)cc4F)n(C)c(=O)c(C)c32)c1	8.17	8.17	< 4.78	5.55	6.19	6.71	6.86	7.19	4.9	< 4.78	8.68	< 4.78	< 4.78	6.92	5.01	7.23	7.93	< 4.78		
CC(C)Oc1ccc(C(=O)N[C@H](CNC(=O)CN(C)C)Cc2ccc(-c3cn4cccc([C@H](C)O)c4n3)cc2)cc1Cl	7.42	< 4.48	7.43	7.3	7.08	7.35	5.91	7.46	5.43	7.41	6.1	5.46		7.65	7.62	5.72	7.43	6.59	5.17	
CCNCCCNC/C=C\CNCCCNCC	4.33	3.68	3.15	4.73	4.17	4.09	4.75	2.95	< 3.3	3.39	< 4	4.24	2.9	5.45	3.33	4.85	4.03	3.71	3.13	
CCn1cc(-c2ccnc3[nH]c(-c4cccc(CN(C)C)c4)cc23)c(-c2ccc(NC(=O)N(C)C)cc2)n1	6.33	5.1	5.22	5.71	5.76	5.27	5.47	5.9	5.95	6.3	5.22	5.2	5.03	6.86	5.52	5.18	5.77	6.17	6.19	
C[C@@H](Oc1cc(-n2cnc3ccc(CN4CCN(C)CC4)cc32)sc1C(N)=O)c1ccccc1C(F)(F)F	7.68	5.16	8.72	7.48	7.15	8.37	7.75	7.52	5.71	8.29	6.14	5.07	5.8	8.2	8.58	5.13	7.49	7.05	6.69	
O=C1NC(=O)/C(=C/c2ccc3nccc(-c4ccncc4)c3c2)S1	6.26	6.31	5.92	5.73	6.26	5.61	5.21	6.49	7.13	6.9	6.38	6.8	5.87	6.82	6.32	6.59	6.72	5.94		
Oc1cc(-c2nc(-c3ccccc3)[nH]c2-c2ccncc2)ccc1Cl	4.52	5.07	4.76	< 4.48	4.59	4.82	4.87	4.69	5.19	< 4.48	4.97	4.79		5.13	< 4.48	4.79	4.78	4.77	5.45	
C=CCNC1=C2C[C@@H](C)C[C@H](OC)[C@H](O)[C@@H](C)/C=C(\C)[C@H](OC(N)=O)[C@@H](OC)/C=C\C=C(/C)C(=O)NC(=CC1=O)C2=O [17-AAG]	7.56	6.65	7.29	7.51	7.45	6.54	6.11	7.72	7.47	6.93	7.48	5.84	6.99	7.79	7.24	7.41	7.46	6.84	7.56	
COc1cc2ncnc(Nc3cccc(Cl)c3)c2cc1OC [AG1478]	< 3.78	4.11	4.82	4.33	< 3.78	4.15	< 3.78	6.08	< 3.78	4.57	7.16	6.17	< 3.78	< 3.78	4.79	5.92	4.76	5.26		
CCc1c2c(nc3ccc(OC(=O)N4CCC(N5CCCCC5)CC4)cc13)-c1cc3c(c(=O)n1C2)COC(=O)[C@]3(O)CC [CPT-11]	5.16	4.71	5.25	5.47	4.94	6	5.06	5.34	4.99	5.5	5.79	4.69	4.88	5.87	5.83	4.62	5.37	4.62	5.66	
O=C(O)C1(C(=O)O)CCC1.[NH2-].[NH2-].[Pt+2] [Carboplatin]	4.27	3.82	4.34	4.61	3.79	5	4.09	4.57	3.94	4.88	4.05	3.97	4.34	4.71	4.95	4.02	4.55	3.96	5.29	
N.N.[Cl][Pt][Cl] [Cisplatin]	5.26	4.33	5.06	5.6	3.84	5.91	4.65	5.75	4.03	5.71	4.18	4.42	5.11	5.78	5.72	4.91	5.4	5.11	< 3.3	
COc1cccc2c1C(=O)c1c(O)c3c(c(O)c1C2=O)C[C@@](O)(C(=O)CO)C[C@@H]3O[C@H]1C[C@H](N)[C@H](O)[C@H](C)O1 [Doxorubicin]	6.72	6.69	6.63	6.94	6.52	6.6	6.44	6.73	6.51	7.29	7.34	6.51	6.71	7.01	7.03	6.33	6.77	5.59		
COc1cccc2c1C(=O)c1c(O)c3c(c(O)c1C2=O)C[C@@](O)(C(=O)CO)C[C@@H]3O[C@H]1C[C@H](N)[C@@H](O)[C@H](C)O1 [Epirubicin]	6.62		6.65	6.7	6.58	6.14	6.57	7.44	6.39	6.91	7.26	5.17	6.86	7.42	6.84	6.15	6.86	6.06	8.25	
O=c1[nH]cc(F)c(=O)[nH]1 [Fluorouracil]	4.08	4.11	3.98	4.01	3.66	3.18	3.75	3.37	2.53	3.42	4.82	3.75	4.43	4.65	4.69	3.77	4.68	3.96	< 1.72	
COc1cc2ncnc(Nc3ccc(F)c(Cl)c3)c2cc1OCCCN1CCOCC1 [Gefitinib]	5.21	5.21	5.03	4.86	5.09	5.17	< 4.48	5.83	5.11	4.53	6.17	6.14	4.62	5.1	5.97	5.5	5.07	5.19	7.43	
COC1=C2C[C@@H](C)C[C@H](OC)[C@H](O)[C@@H](C)/C=C(\C)[C@H](OC(N)=O)[C@@H](OC)/C=C\C=C(/C)C(=O)NC(=CC1=O)C2=O [Geldanamycin]	7.91	7.43	7.78	8.22	7.52	7.42	7.65	7.7	7.71	7.69	7.73	7.84	7.24	7.93	7.35	7.49	8.21	7.47	8.01	
Nc1ccn([C@@H]2O[C@H](CO)[C@@H](O)C2(F)F)c(=O)n1 [Gemcitabine]	7.3	7.64		8.08	6.05	6.47	5.93	6.91	6.44	7.61	7.17	4.88	7.62		7.81	4.81	7.99	6.76	6.14	
O=C(c1ccc(Nc2nccc(-c3cc4ccccc4s3)n2)cc1)N1CCC(N2CCCC2)CC1 [IKK 16]	6	5.11	5.24	5.4		5.86	5.44	5.81		5.13	5.39	5.27	5.26	5.94	5.58	5.36	5.8	5.48	5.83	5.38
O=C(O)C(=O)O.[NH-][C@@H]1CCCC[C@H]1[NH-].[Pt+2] [Oxaliplatin]	5.72		5.46	5.81	4.53		4.9	4.86	4.39	5.54	5.75	4.73	5.45	5.46			5.6	5.35	5.57	
CC[C@@]1(O)C(=O)OCc2c1cc1n(c2=O)Cc2cc3c(CN(C)C)c(O)ccc3nc2-1 [Topotecan]	7.2		6.03	7.62	6.73	7.82	5.67	8.08	7.2	7.39	7.58	5.6	6.59	8.08	7.73	6.45	6.65	5.8	7.16	
CCC1=C[C@@H]2CN(C1)Cc1c([nH]c3ccccc13)[C@@](C(=O)OC)(c1cc3c(cc1OC)N(C)[C@H]1[C@@](O)(C(=O)OC)[C@H](OC(C)=O)[C@]4(CC)C=CCN5CC[C@]31[C@@H]54)C2 [Vinorelbine]	8.68	5.97	9	8.02	7.73	8.45	8.39	8.65	8.08	5.23	7.91	7.32	7.88	7.97	8.24	6.45	7.91	6.42		
Cc1cc(C(=O)N2CCN(c3cccc(Cl)c3)CC2)n(-c2ccccc2)n1 [XRP44X]	6.6	< 3.88	6	5.83	6.2	6.03	5.98	6.14		6.31	6.67	4.61	6.08	6.06	6.35	< 3.88	6.21	4.6	6.55	
